Here are results for one compound from patent US10227290B2, “Glycosphingolipids for use in modulating immune responses” (The Regents of the University of California, priority 2012, dated 2019).

The assay deals with T1, Mouse CD1d (mCD1d) tetramer / TCR of NKT cell hybridomas (Mus musculus, UniProt P11609).
T1 construct: purchased NIH Tetramer Core Facility
T1 sequence (P11609 19-297 limits assumed): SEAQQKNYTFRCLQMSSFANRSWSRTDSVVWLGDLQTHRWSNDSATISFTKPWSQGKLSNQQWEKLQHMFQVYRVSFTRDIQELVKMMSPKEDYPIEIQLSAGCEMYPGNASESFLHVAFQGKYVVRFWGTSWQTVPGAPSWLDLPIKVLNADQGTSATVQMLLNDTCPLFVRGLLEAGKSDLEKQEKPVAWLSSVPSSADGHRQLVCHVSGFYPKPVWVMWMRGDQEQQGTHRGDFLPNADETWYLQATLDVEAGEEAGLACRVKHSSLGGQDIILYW
T1 sequence (P01887 21-119 partner): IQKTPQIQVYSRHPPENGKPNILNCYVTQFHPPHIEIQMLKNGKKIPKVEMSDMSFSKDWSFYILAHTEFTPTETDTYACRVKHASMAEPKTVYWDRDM
Put plainly: Staining of NKT cell hybridomas with sphingolipid-loaded mCD1d tetramers (flow cytometry). The class given is binding. The following applies: mCD1d tetramer loaded with the sphingolipid. As to the method:
FIGS. 4A-4C illustrate that α-GalCerBf binds CD1d and activates murine NKT cells in vitro. FIG. 4A: NKT cell hybridomas (see Example 4) were stained with anti-CD3 antibodies, and empty mCD1d tetramers or CD1d tetramers were loaded with α-GalCerBf or KRN7000. Flow cytometry plots representative of three independent experiments are shown. FIG. 4B: Hybridomas were cultured with BMDCs (bone marrow-derived dendritic cells) pre-pulsed with LPS or LPS+α-GalCerBf in the presence of control Ig or anti-CD1d blocking antibodies. IL-2 secretion was measured in supernatants 16 hr later. Data are representative of three independent experiments. FIG. 4C: Liver mononuclear cells were cultured with splenocytes plus increasing amounts of α-GalCerBf in the presence or absence of anti-CD1d blocking antibodies. IFN-γ secretion was measured in supernatants on day 5. Data are representative of three independent experiments.
The reagents used in Examples 4 and 5 for the immunology studies were as follows. PBS-57 loaded mCDld tetramers, which were used for mouse experiments, and unloaded mCD1d monomers were obtained from the NIH Tetramer Core Facility. For loading, monomers were incubated with KRN7000 or α-GalCerBf diluted in DMSO at 6 fold molar excess at 37° C. for 3 hrs in the presence of pepstatin, leupeptin, EDTA and TWEEN 20. Samples were concentrated using a 30K microconcentrator. Monomers were tetramerized by incubation with streptavidin-conjugated allophycocyanin (APC) (Molecular Probes, Inc., Eugene, Oreg.) at a 1:1 ratio. Staining was performed at room temperature for 1 hr. […] Viability was determined by staining cells with LIVE/DEAD fixable Aqua stain (Invitrogen Life Technologies, Carlsbad, Calif.) per manufacturer's instructions. […]
Synthetic CD1d tetramers were loaded with each sphingolipid, KRN7000 and α-GalCerBf), and the capability of the sphingolipid/CD1d-tetramer complex (hereafter called ‘tetramer’) to stain three NKT-cell-derived hybridomas was determined (see, e.g., Brossay et al., J. Immunol. […]
(In general: Flow cytometry measures light scatter and fluorescence of single cells or particles in a stream.)

As for `CCCCCCCCCCCCCCCCCCCCCCCCCC(=O)N[C@@H](CO[C@H]1O[C@H](CO)[C@H](O)[C@H](O)[C@H]1O)[C@H](O)[C@H](O)CCCCCCCCCCCCCC` [KRN7000], the “MFI (Median Fluorescence Intensity) of tetramer staining” value by setting is: (DN3A4-1.2 (1.2) hybridoma) 2151; (DN3A4-1.4 (1.4) hybridoma) 683; (N38-2C12 (2C12) hybridoma) 8932.
